Reference: patent US11260054B2, “Methods of treatment of cancer” (Pano Therapeutics, Inc., priority 2018, dated 2022)
Read-outs that look alike come from different tables or passages of the source.

Columns and labels:
[1] = system: HTC116 Cell Line; test: Colorectal cancer cell survival assay (CellTiter-Glo); type: cell-based; details: 72 hrs incubation
Procedure: HTC116 cells were grown overnight at 37° C., 5% CO2. Cells were then incubated for 72 hrs in humidified incubator at 37° C. and 5% CO2 with 5 m, AA6, metformin, S1QEL 1.1, or cisplatin at concentrations ranging from 100 μM-50 nM. Each condition was done in triplicate, and the structures of the compounds were not known to the experimenters. After the incubation, cells were lysed with CellTiter-Glo® Luminescent Cell Viability Assay reagent (Promega) and luminescence was read using an Envision plate reader.
The IC50s of 5 m, AA6, and cisplatin were similar with 5 m and AA6 having slightly lower IC50s. Metformin and S1Qel 1.1 had dramatically larger IC50s than 5 m, AA6, or cisplatin. Cell viability was plotted with GraphPad Prism version 5 and the IC50 was calculated for each compound. The graphical curves were fitted using a nonlinear regression model with a sigmoidal dose response.

[2] = system: PANC-1 Cell Line; test: Pancreatic cancer cell survival assay, PANC-1 (CellTiter-Glo); type: cell-based; details: 72 hrs incubation, read-out: Absolute IC50
Procedure: (§1) PANC-1 and MiaPaCa-2 were grown overnight at 37° C., 5% CO2 and 95% humidity. PANC-1 was grown in DMEM+10% FBS and MIA PaCa-2 was grown in DMEM+10% FBS+2.5% H. Cells from each cell line were then incubated for 72 hrs in humidified incubator at 37° C. and 5% CO2 with 5 m, AA6, metformin, or cisplatin at concentrations ranging from 100 μM-50 nM. Each condition was done in triplicate, and the structures of the compounds were not known to the experimenters. After the incubation, cells were lysed with CellTiter-Glo® Luminescent Cell Viability Assay reagent (Promega) and luminescence was read using an EnVision plate reader (PerkinElmer). Cell viability was plotted with GraphPad Prism version 5 and the IC50 was calculated for each compound with each cell line. The graphical curves were fitted using a nonlinear regression model with a sigmoidal dose response.

[3] = system: MiaPaCa-2 Cell Line; test: Pancreatic cancer cell survival assay, MiaPaCa-2 (CellTiter-Glo); type: cell-based; details: 72 hrs incubation, read-out: Absolute IC50
Procedure: as §1

[4] = system: HCT116 cells; test: Hypoxic cancer cell survival assay, normoxic vs hypoxic (CellTiter-Glo); type: cell-based; details: for IC50: 72 hrs, read-out: Absolute IC50
Procedure: HCT116 cells were cultured in an atmosphere of 37° C., 5% CO2, 95% humidity, and with either 1% O2 (hypoxic) or 20% O2 (normoxic). No antibiotics were used in the cell culturing. HeLa cells were grown in parallel and samples were taken after 48 h and 72 h to confirm Hypoxia-inducible factor-1α (HIF-1α) expression by western blot.
HCT116 cells were then seeded on 6-well plates and incubated at 37° C., 5% CO2, and 95% humidity overnight. Cells previously cultured under hypoxic conditions were again incubated with 1% O2, and cells previously cultured under normoxic conditions were again incubated with 20% O2.
as §1, with “Hypoxic” for “PANC-1”, “normoxic cells” for “MiaPaCa-2 were grown overnight at 37° C., 5% CO2 and 95% humidity. PANC-1 was grown in DMEM+10% FBS and MIA PaCa-2 was grown in DMEM+10% FBS+2.5% H. Cells from each cell line”, “C., 5% CO2, 95% humidity,” for “C.”, “either 1% O2 (hypoxic) or 20% O2 (normoxic)” for “5% CO2”, “1 mM-50” for “100 μM-50”

[5] = Pharmacokinetic parameters in mice, IV and oral; type: in vivo, BALB/c mice; details: for Vd: BALB/c, iv
Procedure: Fed BALB/c mice were administered either 2 mg/kg of 5 m intravenously via the tail vein or 10 mg/kg of 5 m orally. For both conditions, 5 m was dissolved in 10% DMSO/50% PEG400/40% Water. Blood was sampled at various timepoints after the compound was administered and was analyzed using AB Sciex API 4000 LC/MS/MS in positive ion mode.

[6] = Homo sapiens, HCT-116, 72 h, HCT116, hypoxic conditions (1% O2)
[7] = HCT116, hypoxic conditions (1% O2)
[8] = mouse, blood, IV, 2 mg/kg, fed BALB/c mice, mean N = 3
[9] = mouse, blood, oral, 10 mg/kg, fed BALB/c mice, mean N = 3

## CN(C)C(=N)N=C(N)N [Metformin, reference compound]
[1]
  IC50: > 100 µM
[2]; Homo sapiens, PANC-1, 72 h
  IC50: > 5000 µM
[3]; Homo sapiens, MIA PaCa-2, 72 h
  IC50: > 5000 µM
[4]; HCT116, hypoxic conditions, concentrations up to 1 mM
  dose response curve: failed to result in a recognizable dose response curve
[4]; [6]
  IC50: > 1000 µM
[4]; Homo sapiens, HCT-116, 72 h, HCT116, normoxic conditions (20% O2)
  IC50: 71.8 µM

## CN(CCCCCCc1ccccc1)CCCCNC(=O)c1nc(Cl)c(NCc2ccc(Cl)cc2)nc1N [AA6, 3-amino-6-chloro-5-((4-chlorobenzyl)amino)-N-(4-(methyl(6-phenylhexyl)amino)butyl)pyrazine-2-carboxamide]
[1]
  IC50: 3.6 µM
[2]
  IC50: 5.9 µM
[2]; Homo sapiens, PANC-1, 72 h
  IC50: < 6 µM
[3]
  IC50: 5.1 µM
[3]; Homo sapiens, MIA PaCa-2, 72 h
  IC50: < 6 µM
[4]; [7]
  IC50: 5 µM
[4]; [6]
  IC50: < 6 µM

## N.N.[Cl][Pt][Cl] [Cisplatin, reference compound]
[1]
  IC50: 4.3 µM
[2]; listed as cisplatin
  IC50: 12.2 µM
[2]
  IC50: 14.2 µM
[3]; listed as cisplatin
  IC50: 14.2 µM
[3]
  IC50: 12.2 µM

## N/C(=N\C(=O)c1nc(Cl)c(NCc2ccc(I)cc2)nc1N)NCCCCc1ccccc1 [5m, (E)-3-amino-N-(amino((4-phenylbutyl)amino)methylene)-6-chloro-5-((4-iodobenzyl)amino)pyrazine-2-carboxamide]
[1]
  IC50: 3.2 µM
[2]
  IC50: 4.7 µM
[2]; Homo sapiens, PANC-1, 72 h
  IC50: < 6 µM
[3]
  IC50: 4.3 µM
[3]; Homo sapiens, MIA PaCa-2, 72 h
  IC50: < 6 µM
[4]; [7]
  IC50: 1.7 µM
[4]; HCT116, normoxic conditions (20% O2)
  IC50: 0.7 µM
[5]; 2 mg/kg intravenously or 10 mg/kg orally, BALB/c mice
  apparent abnormal symptoms or toxicity during the assay: did not result in any apparent abnormal symptoms or toxicity
[5]; mouse, blood, 2 mg/kg, IV, 2 mg/kg, fed BALB/c mice, mean N = 3, read-out: Vss
  Vd: 9.41 L/kg
[5]; mouse, blood, 2 mg/kg, IV, 2 mg/kg, fed BALB/c mice, mean N = 3, read-out: Vz
  Vd: 17.5 L/kg
[5]; IV, 2 mg/kg, fed BALB/c mice, mean N = 3
  AUC Extr: 2.47%
[5]; mouse, blood, IV, 2 mg/kg via tail vein, fed BALB/c mice, mean N = 3
  half-life: 5.3 h
[5]; [8]
  AUC(0-inf): 871 ng·h/mL
  AUC(0-t): 849 ng·h/mL
  C0: 3870 ng/mL
  MRT inf: 4.1 h
  clearance: 38.4 mL/min/kg
[5]; [9]
  AUC(0-inf): 41.5 ng·h/mL
  AUC(0-t): 32.8 ng·h/mL
  CL/F: 4030 mL/min/kg
  Cmax: 18.3 ng/mL
  half-life: 3.62 h
[5]; mouse, blood, oral, 10 mg/kg, fed BALB/c mice, mean N = 3, read-out: Vz/F
  Vd/F: 1270 L/kg
[5]; oral 10 mg/kg vs IV 2 mg/kg, fed BALB/c mice, mean N = 3
  F: 0.773%
